Data published in patent publication US20110305703A1, “ISOLATED VEGF-C AND VEGF-D PEPTIDES AND USES THEREOF” (Vegenics Pty Limited, priority 2008, published 2011).
Primed or numbered codes have the meaning given here. No end group written: not given here. *: point of attachment. Biotin = O=C1N[C@H]2[C@H](CS[C@H]2CCCCC(=O)*)N1; Biotin′ = not defined here

The molecules below were run on VEGF-D neutralizing monoclonal antibody mAb 4A5 (VDnmAb) (assay: ELISA of biotinylated synthetic peptides on streptavidin plates for VDnmAb binding). Settings: 1st peptide library; 10 pmol peptide; VDnmAb 2 μg/ml; signal more than two-fold greater than background considered positive.
Description: Peptides. A series of synthetic 15-mer peptides (peptides 1 to 35, SEQ ID NOs: 4 to 38 in FIG. 4B, which overlap each other by 12 amino acids) were synthesized (Mimotopes Pty Ltd, Melbourne, Australia). The peptides encompassed the VHD of human VEGF-D (SEQ ID NO: 3, FIG. 4A). Peptide 36 (SEQ ID NO: 39) represented an artificial sequence including a FLAG tag as a positive control for a commercial anti-FLAG mAb (M2; Sigma) that was used as control for non-specific binding to peptides 1 to 35 (SEQ ID NOs: 4 to 38). Biotin was included at the N-terminal of each peptide during synthesis, except that peptide 1 (SEQ ID NO: 4, representing the N-terminal of the VHD) has biotin at the C-terminal. The four-amino acid linker “SGSG” was introduced between the N-terminal of each peptide sequence and biotin to provide more flexibility to peptides after immobilization on streptavidin plates, except peptide 1 (SEQ ID NO: 4) that included the C-terminal linker “GSG”.
ELISA. Reacti-Bind streptavidin high-binding-capacity coated plates (Pierce) were coated with 10 pmol of each peptide in PBS, blocked with 5% milk in PBS-0.1% Tween 20, and incubated with 100 μl of VEGF-D neutralizing monoclonal antibody mAb 4A5 (referred to herein as VDnmAb) or M2 at 2 μg/ml for 1 h at room temperature. Bound mAb was detected with goat anti-mouse IgG coupled with HRP. ABTS was used as the substrate, and the absorbance was read at 405 nm in a multiwell plate reader.
In this 2nd peptide library, biotin was included at the N-terminal of each peptide, and the four-amino acid linker “SGSG” was introduced between each peptide sequence and the biotin residue to provide more flexibility to peptides after immobilization on streptavidin plates. ELISA-based analysis of the 2nd peptide library was carried out as for the 1st peptide library.
Peptide 67 (SEQ ID NO: 141, the same as peptide 36, SEQ ID NO: 39 from the 1st library) and peptide 68 (SEQ ID NO: 142), both containing the FLAG tag, were used as controls. In this 3rd peptide library, biotin was included at the N-terminal of each peptide except peptides 6, 12 and 14 (SEQ ID NOs: 80, 86 and 88) which have C-terminal biotin residues. To provide more flexibility to peptides after immobilization on streptavidin plates, an amino acid linker was introduced between biotin residues and the peptide sequence: “SGSG” for N-terminal biotin; “SGS” for C-terminal biotin. ELISA-based analysis of the 3rd peptide library was carried out as for the 1st peptide library, described in Example 1.

Molecule	VDnmAb binding to peptide (ELISA signal, absorbance at 405 nm)
FRCGGCCNEESLICM (Biotin-SGSGFRCGGCCNEESLICM; cysteine pairing not given here) [peptide 18 (SEQ ID NO: 21), residues 140 to 154 of human VEGF-D, N-terminal biotin and SGSG linker]	positive
VNVFRCGGCCNEESL (Biotin-SGSGVNVFRCGGCCNEESL; cysteine pairing not given here) [peptide 17 (SEQ ID NO: 20), residues 137 to 151 of human VEGF-D, N-terminal biotin and SGSG linker]	the strongest

Same assay, conditions: 2nd peptide library; 10 pmol peptide; VDnmAb 2 μg/ml; signal more than two-fold greater than background considered positive

Molecule	VDnmAb binding to peptide (ELISA signal, absorbance at 405 nm)
VSVYRCGGCCNSEGL (Biotin-SGSGVSVYRCGGCCNSEGL; not fully specified; cysteine pairing not given here) [peptide 32 (SEQ ID NO: 71), residues 157 to 171 of human VEGF-C, biotin and linker]	did not bind the antibody
peptide 22 (SEQ ID NO: 61): 2nd library: single mutation of cysteine in the binding region, C146S (SGSGVNVFRCGGCSNEESL)	very minor or no effect on VDnmAb binding
peptide 27 (SEQ ID NO: 66): 2nd library: mutation of two of the cysteine residues to serine (SGSGVNVFRSGGCSNEESL)	more effect
peptide 28 (SEQ ID NO: 67): 2nd library: mutation of all three cysteine residues to serine (SGSGVNVFRSGGSSNEESL)	significant loss of antibody binding
FRCGGCCNEESL (Biotin-SGSGFRCGGCCNEESL; cysteine pairing not given here) [peptide 15 (SEQ ID NO: 54), residues 140 to 151 of human VEGF-D, 2nd library, N-terminal biotin and SGSG linker]	positive
peptide 25 (SEQ ID NO: 64): 2nd library: mutation of two of the cysteine residues to serine (SGSGVNVFRCGGSSNEESL)	more effect
VNVFRCGGCCNEESL (Biotin-SGSGVNVFRCGGCCNEESL; cysteine pairing not given here) [peptide 17 (SEQ ID NO: 20), residues 137 to 151 of human VEGF-D, N-terminal biotin and SGSG linker]	bound to VDnmAb
peptide 18 (SEQ ID NO: 57): peptide 14 (SEQ ID NO: 53) with deletion of the leucine residue corresponding to position 151 (SGSGVFRCGGCCNEES)	complete loss of VDnmAb binding

Same assay, conditions: 3rd peptide library; 10 pmol peptide; VDnmAb 2 μg/ml; signal more than two-fold over background considered positive

Molecule	VDnmAb binding to peptide (ELISA signal, absorbance at 405 nm)
peptide 19 (SEQ ID NO: 93): 3rd library: deletion of F140 (SGSGVRCGGCCNEESL)	little or no effect on VDnmAb binding
GGCCNEESL (SGSGGGCCNEESL) [peptide 16 (SEQ ID NO: 90)]	positive
peptide 10 (SEQ ID NO: 84): 3rd library: mutation V139A (SGSGAFRCGGCCNEESL)	little or no effect on VDnmAb binding
peptide 7 (SEQ ID NO: 81): 3rd library: mutation of residue 151 to valine (SGSGVFRCGGCCNEESV)	decreased VDnmAb binding
peptide 31 (SEQ ID NO: 105): 3rd library: double mutation E148D/E149D (SGSGVFRCGGCCNDDSL)	loss, even complete loss, of VDnmAb binding
peptide 22 (SEQ ID NO: 96): 3rd library: deletion of R141 (SGSGVFCGGCCNEESL)	little or no effect on VDnmAb binding
peptide 27 (SEQ ID NO: 101): 3rd library: mutation E148A (SGSGVFRCGGCCNAESL)	loss, even complete loss, of VDnmAb binding
peptide 58 (SEQ ID NO: 132): 3rd library: deletion of most of the cysteine and glycine residues at positions 142 to 146 (Biotin-SGSGNVFNEESL)	loss, but not complete loss, of binding
VFRCGGCCNEESL (VFRCGGCCNEESLSGS-{Biotin′}; cysteine pairing not given here) [peptide 6 (SEQ ID NO: 80)]	decreases in VDnmAb binding
peptide 17 (SEQ ID NO: 91): 3rd library: mutation F140Y (SGSGVYRCGGCCNEESL)	little or no effect on VDnmAb binding
peptide 9 (SEQ ID NO: 83): 3rd library: mutation V139L (SGSGLFRCGGCCNEESL)	little or no effect on VDnmAb binding
FRCGGCCNEESL [peptide 12 (SEQ ID NO: 86)] (FRCGGCCNEESLSGS-{Biotin′}; cysteine pairing not given here)	decreases in VDnmAb binding
peptide 20 (SEQ ID NO: 94): 3rd library: mutation R141K (SGSGVFKCGGCCNEESL)	more pronounced effect
peptide 29 (SEQ ID NO: 103): 3rd library: mutation E149D (SGSGVFRCGGCCNEDSL)	loss, even complete loss, of VDnmAb binding
peptide 1 (SEQ ID NO: 75): 3rd library: variant of VFRCGGCCNEESL with mutation S150C (SGSGVFRCGGCCNEECL)	loss, even complete loss, of VDnmAb binding

What follows are molecules tested on VDnmAb (assay: Western blot of conditioned media containing VEGF-DΔNΔC variants probed with VDnmAb). Settings: conditioned media of 293-F cells; in comparison to VEGF-DΔNΔC.
Format: binding
Description: Site-directed mutagenesis. DNA encoding VEGF-DΔNΔC, a form of mature human VEGF-D tagged at the N-terminus with the FLAG octapeptide (FIG. 11; SEQ ID NO: 145), was subjected to site-directed mutagenesis by PCR to generate VEGF-DΔNΔC variants. Mutations were introduced by amplification with the following primers: N147Q with 5'-[…] NO: 146) and 5'-[…] with 5'-[…] NO: 148) and 5'-[…] with 5'-[…] NO: 150) and 5'-[…] with 5'-[…] NO: 152) and 5'-[…] with 5'-[…] NO: 154) and 5'-[…] with 5'-[…] NO: 156) and 5'-[…] with 5'-[…] NO: 158) and 5'-[…] NO: 159) (FIG. 12). The desired mutations, as well as the absence of any unwanted mutations, in the resulting DNA fragments were confirmed by nucleotide sequencing. Expression of VEGF-DΔNΔC variants. Plasmids containing DNA encoding VEGF-DΔNΔC or its variants were used for transient transfection of 293-F cells with the FreeStyle MAX 293 Expression System according to manufacturer's instructions (Invitrogen). Cells expressing each variant were cultured in serum-free medium, and 30 ml of conditioned media was collected 7 days post-transfection and used for analysis. Western Blot Analysis. Conditioned media containing different variants of VEGF-DΔNΔC were resolved by SDS-PAGE, transferred to nitrocellulose membrane, probed with M2 anti-FLAG or VDnmAb antibodies labeled with IRDye 800CW according to manufacturer's instructions (LI-COR), and detected with an Odyssey Infrared Imaging System (LI-COR).

Molecule	VDnmAb binding to VEGF-DΔNΔC variant in Western blot
E148D: VEGF-DΔNΔC variant with mutation E148D (protein) DYKDDDDKFYDIETLKVIDEEWQRTQCSPRETCVEVASELGKSTNTFFKPPCVNVFRCGGCCNDESLICMNTSTSYISKQLFEISVPLTSVPELVPVKVANHTGCKCLPTAPRHPYS	complete loss of VDnmAb binding
E149D: VEGF-DΔNΔC variant with mutation E149D (protein) DYKDDDDKFYDIETLKVIDEEWQRTQCSPRETCVEVASELGKSTNTFFKPPCVNVFRCGGCCNEDSLICMNTSTSYISKQLFEISVPLTSVPELVPVKVANHTGCKCLPTAPRHPYS	dramatic decrease in the amount of VDnmAb bound
